From patent US20230293526A1, “METHOD FOR TREATING CANCER WITH A REVERSE TRANSCRIPTASE INHIBITOR” (PrimeFour Therapeutics, Inc., priority 2020, published 2023)
pIC50: −log10 of the molar value.

Key:
Assay type in all cases: cell-based
5637 = assay: Cell proliferation Ex.3
COLO205 = assay: Cell proliferation Ex.3; conditions: Homo sapiens, COLO 205
DLD1 = assay: Cell proliferation Ex.3; conditions: Homo sapiens, DLD-1
EFO21 = assay: Cell proliferation Ex.3; conditions: Homo sapiens, EFO-21
J82 = assay: Cell proliferation Ex.3; conditions: Homo sapiens
L363 = assay: Cell proliferation Ex.3; conditions: Homo sapiens, L-363
MDAMB231 = assay: Cell proliferation Ex.3; conditions: Homo sapiens, MDA-MB-231
MG63 = assay: Cell proliferation Ex.3; conditions: Homo sapiens, MG-63
PLCPRF5 = assay: Cell proliferation Ex.3; conditions: Homo sapiens, PLC-PRF-5
SF268 = assay: Cell proliferation Ex.3; conditions: Homo sapiens, SF-268
SF295 = assay: Cell proliferation Ex.3; conditions: Homo sapiens, SF-295
SKMEL28 = assay: Cell proliferation Ex.3; conditions: Homo sapiens, SK-MEL-28
U87MG = assay: Cell proliferation Ex.3; conditions: Homo sapiens, U-87 MG
CASKI = assay: Cell proliferation Ex.3; conditions: Homo sapiens, Ca-Ski
Protocol: (§1) A dose response relationship on cell proliferation was assessed for Compound 13 on 140 tumor cell lines. […] Cells were cultured in the appropriate media. For the assays, cells were seeded in white cell culture-treated flat and clear bottom multiwell plates and incubated at 37° C. overnight before compound was added. […] dependent on the medium, cell plates were equilibrated to room temperature for one hour, CellTiterGlo reagent (Promega) was added and luminescence was measured approximately an hour later using a luminometer. Raw data were converted into percent cell viability relative to the high and low control, which were set to 10000 and 000, respectively.

MINO = assay: Cell proliferation Ex.3; conditions: Homo sapiens
Protocol: as §1

SKNSH = assay: Cell proliferation Ex.3; conditions: Homo sapiens, SK-N-SH
Protocol: as §1

PBMC = assay: Cell proliferation Ex.3
HCT-15 = assay: Cell proliferation CellTiterGlo Ex.2; conditions: Homo sapiens; HCT-15 (Colon), 72 h
Protocol: (§2) A dose response relationship on cell proliferation was assessed for Compound 13 on 140 tumor cell lines. Briefly, compound treatment of cells started one day after seeding with a final DMSO concentration of 0.100, and was performed by nanodrop-dispensing using a Tecan Dispenser. 0.10% DMSO (solvent) and Staurosporine (10 μM) served as high control (10000 viability) and low control (000 viability), respectively. Compound 13 was tested at 10, 3, 1, 0.3, 0.1, 0.03, 0.01, and 0.003 μM.
(§3) Cells were cultured in the appropriate media. For the assays, cells were seeded in white cell culture-treated flat and clear bottom multiwell plates and incubated at 37° C. overnight before compound was added. After incubation for 72 h at 37° C. at 5% or 10% CO2 dependent on the medium, cell plates were equilibrated to room temperature for one hour, CellTiterGlo reagent (Promega) was added and luminescence was measured approximately an hour later using a luminometer.
(§4) Raw data were converted into percent cell viability relative to the high and low control, which were set to 10000 and 000, respectively.

HEC-1-A = assay: Cell proliferation CellTiterGlo Ex.2; conditions: Homo sapiens; HEC-1-A (Endometrium), 72 h
Protocol: as §2, §3, §4

HT-1080 = assay: Cell proliferation CellTiterGlo Ex.2; conditions: Homo sapiens; HT-1080 (Fibrosarcoma), 72 h
Protocol: as §2, §3, §4

NCI-H2110 = assay: Cell proliferation CellTiterGlo Ex.2; conditions: NCI-H2110 (Lung), 72 h
Protocol: as §2, §3, §4

C#C[C@]1(CO)O[C@@H](n2cc(F)c(N)nc2=O)C[C@@H]1O [compound 9] gave a pIC50 (5637; 5637, 72 h) of under 5.00, a pIC50 (5637; 5637, 120 h) of under 5.00 and a pIC50 (5637; 5637, 168 h) of under 5.00. It also gave a pIC50 (COLO205; COLO205, 72 h) of under 5.00, a pIC50 (COLO205; COLO205, 120 h) of 5.94 and a pIC50 (COLO205; COLO205, 168 h) of 6.06. For the same compound, the pIC50 (DLD1; DLD1, 72 h) was under 5.00, the pIC50 (DLD1; DLD1, 120 h) was under 5.00 and the pIC50 (DLD1; DLD1, 168 h) was under 5.00. For the same compound, the pIC50 (EFO21; EFO21, 72 h) was under 5.00, the pIC50 (EFO21; EFO21, 120 h) was under 5.00 and the pIC50 (EFO21; EFO21, 168 h) was under 5.00. The pIC50 (J82; J82, 72 h) was under 5.00, the pIC50 (J82; J82, 120 h) was under 5.00 and the pIC50 (J82; J82, 168 h) was under 5.00. For the same compound, the pIC50 (L363; L363, 72 h) was under 5.00, the pIC50 (L363; L363, 120 h) was under 5.00 and the pIC50 (L363; L363, 168 h) was under 5.00. It also gave a pIC50 (MDAMB231; MDAMB231, 72 h) of under 5.00, a pIC50 (MDAMB231; MDAMB231, 120 h) of under 5.00 and a pIC50 (MDAMB231; MDAMB231, 168 h) of under 5.00. For the same compound, the pIC50 (MG63; MG63, 72 h) was under 5.00, the pIC50 (MG63; MG63, 120 h) was under 5.00 and the pIC50 (MG63; MG63, 168 h) was under 5.00. The pIC50 (PLCPRF5; PLCPRF5, 72 h) was under 5.00, the pIC50 (PLCPRF5; PLCPRF5, 120 h) was under 5.00 and the pIC50 (PLCPRF5; PLCPRF5, 168 h) was under 5.00. For the same compound, the pIC50 (SF268; SF268, 72 h) was under 5.00, the pIC50 (SF268; SF268, 120 h) was under 5.00 and the pIC50 (SF268; SF268, 168 h) was under 5.00. For the same compound, the pIC50 (SF295; SF295, 72 h) was under 5.00, the pIC50 (SF295; SF295, 120 h) was under 5.00 and the pIC50 (SF295; SF295, 168 h) was under 5.00. It also gave a pIC50 (SKMEL28; SKMEL28, 72 h) of under 5.00, a pIC50 (SKMEL28; SKMEL28, 120 h) of under 5.00 and a pIC50 (SKMEL28; SKMEL28, 168 h) of under 5.00. It also gave a pIC50 (U87MG; 72 h) of under 5.00, a pIC50 (U87MG; 120 h) of under 5.00 and a pIC50 (U87MG; 168 h) of under 5.00. The pIC50 (CASKI; 72 h) was under 5.00, the pIC50 (CASKI; 120 h) was under 5.00 and the pIC50 (CASKI; 168 h) was under 5.00. For the same compound, the pIC50 (MINO; 72 h) was 6.47, the pIC50 (MINO; 120 h) was 7.31 and the pIC50 (MINO; 168 h) was 7.19. The pIC50 (SKNSH; 72 h) was under 5.00, the pIC50 (SKNSH; 120 h) was under 5.00 and the pIC50 (SKNSH; 168 h) was under 5.00. For the same compound, the pIC50 (PBMC; 72 h) was under 5.00, the pIC50 (PBMC; 120 h) was under 5.00 and the pIC50 (PBMC; 168 h) was under 5.00.

C#C[C@]1(CO)O[C@@H](n2cnc3c(=O)[nH]c(N)nc32)C[C@@H]1O [compound 13] showed a pIC50 (HCT-15) of under 5.00, a pIC50 (HEC-1-A) of under 5.00 and a pIC50 (HT-1080) of 5.15. It also gave a pIC50 (NCI-H2110) of 5.47.
